Key:
Type in all cases: biochemical
TYK2 = TYK2 (Homo sapiens (Human), UniProt P29597); test: JAK kinase assay (HTRF), TYK2; settings: catalytic domain, ATP at Km (13 μM)
Method: (§1) Human baculovirus-expressed JAK1, 2, 3 and TYK2 were purchased from Carna Biosciences, Inc. All four purified enzymes contain only the catalytic domain. JAK1 (aa 850-1154) and TYK2 (aa 871-1187) are expressed with an N-terminally fused GST-tag, and JAK2 and JAK3 with an N-terminally fused His-tag.
(§2) Inhibition of phosphorylation of a synthetic peptide was measured in an HTRF-based assay using the TK substrate-Biotin from the Cisbio HTRFKinEASE TK kit. First, 2 μl of TK solution (TK substrate-biotin in kinase buffer [1× enzymatic buffer from HTRFKinEASE TK kit, 1 mM DTT]) is added to a plate containing 1 μl prediluted compound (final assay concentration DMSO: 0.75%). Then, 5 μl kinase-ATP mix (prepared in kinase buffer) is added to the wells and the plates are incubated at RT for 20-30 min. For all four kinases a concentration of ATP that corresponded to the Km for ATP was used. The final concentrations of buffers, substrate, kinase and ATP were: JAK1: 50 mM Hepes buffer pH 7.0, 0.01% BSA, 10 mM MgCl2, 1 mM DTT, 7 μM ATP, 50 nM SEB, 1 μM TK Substrate-Biotin and 5 ng JAK1; JAK2: 50 mM Hepes buffer pH 7.0, 0.01% BSA, 5 mM MgCl2, 1 mM DTT, 4 μM ATP, 1 μM TK Substrate-Biotin and 0.1 ng JAK2; JAK3: 50 mM Hepes buffer pH 7.0, 0.01% BSA, 5 mM MgCl2, 1 mM DTT, 2 μM ATP, 1 μM TK Substrate-Biotin and 0.3 ng JAK3; TYK2: 50 mM Hepes buffer pH 7.0, 0.01% BSA, 5 mM MgCl2, 1 mM DTT, 13 μM ATP, 50 nM SEB, 1 μM TK Substrate-Biotin and 0.8 ng TYK2. Thereafter, the kinase reaction is stopped by adding 4 μl detection mix (final concentrations: 50 mM Hepes buffer pH 7.0, 0.01% BSA, 0.8 M KF, 20 mM EDTA, 42 nM Streptavidin-XL665 and 1:400 STK Ab Cryptate) and the plates are incubated overnight in the dark. The HTRF signal is read using an Envision plate reader.
(§3) In Table 1 selected JAK kinase inhibitory activities are listed along with analytical tR and observed M+H^+ data (UPLC-MS method 7).

JAK2 = JAK2 (Homo sapiens (Human), UniProt O60674); test: JAK kinase assay (HTRF), JAK2; settings: catalytic domain, ATP at Km (4 μM)
JAK2, sequence (O60674 849-1124): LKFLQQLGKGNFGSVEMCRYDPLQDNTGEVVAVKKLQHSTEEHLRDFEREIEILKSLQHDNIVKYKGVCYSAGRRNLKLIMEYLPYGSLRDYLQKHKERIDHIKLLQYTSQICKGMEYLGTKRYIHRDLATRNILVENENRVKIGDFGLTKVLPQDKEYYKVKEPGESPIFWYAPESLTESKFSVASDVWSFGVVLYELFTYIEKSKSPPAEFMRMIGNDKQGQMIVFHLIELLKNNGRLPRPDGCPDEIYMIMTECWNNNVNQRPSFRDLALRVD
Method: as §1, §2

JAK1 = JAK1 (Homo sapiens (Human), UniProt P23458); test: JAK kinase assay (HTRF), JAK1; settings: catalytic domain, ATP at Km (7 μM)
JAK1, sequence (P23458 850-1154): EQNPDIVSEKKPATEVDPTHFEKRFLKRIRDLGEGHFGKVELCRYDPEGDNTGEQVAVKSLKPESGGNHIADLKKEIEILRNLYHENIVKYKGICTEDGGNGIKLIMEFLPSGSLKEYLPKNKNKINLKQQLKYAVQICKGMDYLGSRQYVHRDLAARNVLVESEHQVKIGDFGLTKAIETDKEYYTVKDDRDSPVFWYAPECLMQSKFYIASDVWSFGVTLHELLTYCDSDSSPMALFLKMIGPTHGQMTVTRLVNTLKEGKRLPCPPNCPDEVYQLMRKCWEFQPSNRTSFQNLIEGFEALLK
Method: as §1, §2

JAK3 = JAK3 (Homo sapiens (Human), UniProt P52333); test: JAK kinase assay (HTRF), JAK3; settings: catalytic domain, ATP at Km (2 μM)
JAK3, sequence (P52333 822-1111): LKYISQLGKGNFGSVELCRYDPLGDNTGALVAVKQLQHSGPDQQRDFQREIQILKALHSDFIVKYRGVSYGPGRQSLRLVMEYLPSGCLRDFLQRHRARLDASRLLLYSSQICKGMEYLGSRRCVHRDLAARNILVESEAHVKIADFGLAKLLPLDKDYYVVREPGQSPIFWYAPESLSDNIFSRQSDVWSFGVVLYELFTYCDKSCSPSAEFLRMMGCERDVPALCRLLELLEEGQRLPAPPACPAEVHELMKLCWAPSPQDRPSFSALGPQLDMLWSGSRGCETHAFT
Method: as §1, §2, §3

TYK2, sequence (P29597 871-1187): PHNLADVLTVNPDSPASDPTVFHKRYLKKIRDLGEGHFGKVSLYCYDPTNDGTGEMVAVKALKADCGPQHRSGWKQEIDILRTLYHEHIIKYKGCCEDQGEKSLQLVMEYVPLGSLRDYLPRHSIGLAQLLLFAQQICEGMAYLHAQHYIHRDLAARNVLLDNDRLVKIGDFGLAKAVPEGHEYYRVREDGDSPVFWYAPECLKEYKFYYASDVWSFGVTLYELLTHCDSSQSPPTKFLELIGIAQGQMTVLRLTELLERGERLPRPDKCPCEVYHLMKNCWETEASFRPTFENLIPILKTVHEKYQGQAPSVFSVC

SMILES	EC50 (TYK2) [nM]	EC50 (JAK2) [nM]	EC50 (JAK1) [nM]	EC50 (JAK3) [nM]
O=C(NCC1CC(F)(F)C1)[C@H](O)CNC(=O)[C@H]1CCN(c2ncnc3[nH]ccc23)CC12CC2 (single isomer, unassigned) [Example 130]	490	45.9	23.2	51
NS(=O)(=O)c1ccc(CNC(=O)C2CCN(c3ncnc4[nH]ccc34)CC23CC3)cc1 (stereo not shown) [Example 33, 5-(7H-pyrrolo[2,3-d]pyrimidin-4-yl)-N-[(4-sulfamoylphenyl)methyl]-5-azaspiro[2.5]octane-8-carboxamide]	28.9	5	1.9	6
O=C(NC[C@H](O)c1ccc(F)cn1)[C@H]1CCN(c2ncnc3[nH]ccc23)CC12CC2 [Example 46, (8S)-N-[(2S)-2-(5-fluoro-2-pyridyl)-2-hydroxy-ethyl]-5-(7H-pyrrolo[2,3-d]pyrimidin-4-yl)-5-azaspiro[2.5]octane-8-carboxamide]	48.1	8.8	3.1	23.8
N#Cc1ccc([C@H](CO)NC(=O)[C@H]2CCN(c3ncnc4[nH]ccc34)CC23CC3)nc1 [Example 47, (8S)-N-[(1R)-1-(5-cyano-2-pyridyl)-2-hydroxy-ethyl]-5-(7H-pyrrolo[2,3-d]pyrimidin-4-yl)-5-azaspiro[2.5]octane-8-carboxamide]	176	13.7	3.1	32.4
O=C(NCc1ccc(F)cc1)C1CCN(c2ncnc3[nH]ccc23)CC12CC2 (stereo not shown) [Example 53, N-[(4-fluorophenyl)methyl]-5-(7H-pyrrolo[2,3-d]pyrimidin-4-yl)-5-azaspiro[2.5]octane-8-carboxamide]	106	8.9	3.6	20.8
NS(=O)(=O)c1cccc(CNC(=O)C2CCN(c3ncnc4[nH]ccc34)CC23CC3)c1 (stereo not shown) [Example 55, 5-(7H-pyrrolo[2,3-d]pyrimidin-4-yl)-N-[(3-sulfamoylphenyl)methyl]-5-azaspiro[2.5]octane-8-carboxamide]	141	18.5	3.7	13.4
CC(NC(=O)C1CCN(c2ncnc3[nH]ccc23)CC12CC2)c1ccc(F)cc1 (stereo not shown) [Example 61, N-[1-(4-fluorophenyl)ethyl]-5-(7H-pyrrolo[2,3-d]pyrimidin-4-yl)-5-azaspiro[2.5]octane-8-carboxamide]		7.2	4.3	22.1
COc1ccc([C@H](C)NC(=O)C2CCN(c3ncnc4[nH]ccc34)CC23CC3)cc1 (stereo partly drawn) [Example 66, N-[(1S)-1-(4-methoxyphenyl)ethyl]-5-(7H-pyrrolo[2,3-d]pyrimidin-4-yl)-5-azaspiro[2.5]octane-8-carboxamide]		8.3	4.8	40.7
N#Cc1cccc([C@H](CO)NC(=O)[C@H]2CCN(c3ncnc4[nH]ccc34)CC23CC3)c1 [Example 67, (8S)-N-[(1R)-1-(3-cyanophenyl)-2-hydroxy-ethyl]-5-(7H-pyrrolo[2,3-d]pyrimidin-4-yl)-5-azaspiro[2.5]octane-8-carboxamide]	45	5.2	5.1	13.8
N#Cc1cccc(CNC(=O)C2CCN(c3ncnc4[nH]ccc34)CC23CC3)c1 (stereo not shown) [Example 70, N-[(3-cyanophenyl)methyl]-5-(7H-pyrrolo[2,3-d]pyrimidin-4-yl)-5-azaspiro[2.5]octane-8-carboxamide]		8.6	5.5	32.6
C[C@@H](NC(=O)C1CCN(c2ncnc3[nH]ccc23)CC12CC2)c1ccc(F)c(F)c1 (stereo partly drawn) [Example 113, N-[(1R)-1-(3,4-difluorophenyl)ethyl]-5-(7H-pyrrolo[2,3-d]pyrimidin-4-yl)-5-azaspiro[2.5]octane-8-carboxamide]		19.4	11.6	51.2
C[C@@H](NC(=O)C1CCN(c2ncnc3[nH]ccc23)CC12CC2)c1cccc(C#N)c1 (stereo partly drawn) [Example 117, N-[(1R)-1-(3-cyanophenyl)ethyl]-5-(7H-pyrrolo[2,3-d]pyrimidin-4-yl)-5-azaspiro[2.5]octane-8-carboxamide]		21.6	12.4	73.8
C[C@@H](NC(=O)C1CCN(c2ncnc3[nH]ccc23)CC12CC2)c1ccc(F)c(C#N)c1 (stereo partly drawn) [Example 123, N-[(1R)-1-(3-cyano-4-fluoro-phenyl)ethyl]-5-(7H-pyrrolo[2,3-d]pyrimidin-4-yl)-5-azaspiro[2.5]octane-8-carboxamide]		21.4	16.3	63.9
COc1ccc([C@@H](C)NC(=O)C2CCN(c3ncnc4[nH]ccc34)CC23CC3)cc1F (stereo partly drawn) [Example 124, N-[(1R)-1-(3-fluoro-4-methoxy-phenyl)ethyl]-5-(7H-pyrrolo[2,3-d]pyrimidin-4-yl)-5-azaspiro[2.5]octane-8-carboxamide]		59.7	18.6	144
COc1cc(F)ccc1[C@@H](C)NC(=O)C1CCN(c2ncnc3[nH]ccc23)CC12CC2 (stereo partly drawn) [Example 131, N-[(1R)-1-(4-fluoro-2-methoxy-phenyl)ethyl]-5-(7H-pyrrolo[2,3-d]pyrimidin-4-yl)-5-azaspiro[2.5]octane-8-carboxamide]		30.3	24.6	247
C[C@@H](NC(=O)C1CCN(c2ncnc3[nH]ccc23)CC12CC2)c1cccc(F)c1 (stereo partly drawn) [Example 134, N-[(1R)-1-(3-fluorophenyl)ethyl]-5-(7H-pyrrolo[2,3-d]pyrimidin-4-yl)-5-azaspiro[2.5]octane-8-carboxamide]		80.6	32.8	171
COc1cccc([C@@H](C)NC(=O)C2CCN(c3ncnc4[nH]ccc34)CC23CC3)c1 (stereo partly drawn) [Example 139, N-[(1R)-1-(3-methoxyphenyl)ethyl]-5-(7H-pyrrolo[2,3-d]pyrimidin-4-yl)-5-azaspiro[2.5]octane-8-carboxamide]		61.2	39.2	99.3
N#Cc1ccc([C@H](O)CNC(=O)[C@@H]2CCN(c3ncnc4[nH]ccc34)CC23CC3)cc1 [Example 142, (8R)-N-[(2S)-2-(4-cyanophenyl)-2-hydroxy-ethyl]-5-(7H-pyrrolo[2,3-d]pyrimidin-4-yl)-5-azaspiro[2.5]octane-8-carboxamide]		179	42.7	278
COc1cc([C@@H](C)NC(=O)C2CCN(c3ncnc4[nH]ccc34)CC23CC3)ccc1F (stereo partly drawn) [Example 143, N-[(1R)-1-(4-fluoro-3-methoxy-phenyl)ethyl]-5-(7H-pyrrolo[2,3-d]pyrimidin-4-yl)-5-azaspiro[2.5]octane-8-carboxamide]		90.4	45.1	199
COc1cncc([C@@H](C)NC(=O)C2CCN(c3ncnc4[nH]ccc34)CC23CC3)c1 (stereo partly drawn) [Example 144, N-[(1R)-1-(5-methoxy-3-pyridyl)ethyl]-5-(7H-pyrrolo[2,3-d]pyrimidin-4-yl)-5-azaspiro[2.5]octane-8-carboxamide]		80.6	48.5	157
C[C@H](NC(=O)[C@H]1CCN(c2ncnc3[nH]ccc23)CC12CC2)[C@@H](O)c1cccc(F)c1 [Example 150, (8S)-N-[(1S,2S)-2-(3-fluorophenyl)-2-hydroxy-1-methyl-ethyl]-5-(7H-pyrrolo[2,3-d]pyrimidin-4-yl)-5-azaspiro[2.5]octane-8-carboxamide]	21		2.7	3.1
C[C@H](NC(=O)[C@H]1CCN(c2ncnc3[nH]ccc23)CC12CC2)[C@@H](O)c1cccnc1 [Example 151, (8S)-N-[(1S,2S)-2-hydroxy-1-methyl-2-(3-pyridyl)ethyl]-5-(7H-pyrrolo[2,3-d]pyrimidin-4-yl)-5-azaspiro[2.5]octane-8-carboxamide]	184		10.9	29.7
C[C@H](NC(=O)[C@H]1CCN(c2ncnc3[nH]ccc23)CC12CC2)[C@@H](O)c1ccccc1 [Example 152, (8S)-N-[(1S,2S)-2-hydroxy-1-methyl-2-phenyl-ethyl]-5-(7H-pyrrolo[2,3-d]pyrimidin-4-yl)-5-azaspiro[2.5]octane-8-carboxamide]	27.7		2.7	5.8
